Assay results taken from patent publication US9181234B2, “Antibacterial compounds” (priority 2010, dated 2015).
Values after ≈ are worked out from the molar mass of the structure shown.

Legend:
physchem = details: pH 7.4, aqueous buffer, kinetic from dmso stock
Procedure, shortened: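 DMSO doubling dilutions were diluted twenty-fold into 100 mM citrate (pH 4), PBS (pH 7.4) or carbonate-bicarbonate (pH 9). After 24 h equilibration at room temperature, absorbance was read at 620 nm. The reported value is the highest concentration without measurable precipitate.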

[1] = test system: Staphylococcus aureus (Isolate ID ATCC 29213); assay: Antibacterial activity, MIC, S. aureus; type: cell-based; details: Staphylococcus aureus, ATCC29213, Gram positive strain; broth microdilution or agar dilution
Procedure, shortened: (§1)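 CLSI-guided dilution susceptibility testing (broth or agar) gave the MIC for each strain.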

[2] = test system: Enterococcus faecalis (Isolate ID ATCC 29212); assay: Antibacterial activity, MIC, E. faecalis; type: cell-based; details: Enterococcus faecalis, ATCC29212; Gram positive strain; broth microdilution or agar dilution
Experimental: Bacterial Assay: Determination of Antibacterial Activity
Compounds of the invention were tested for antimicrobial activity by susceptibility testing in liquid or on solid media. MICs for compounds against each strain were determined by the broth microdilution or agar dilution method according to the guidelines of the Clinical Laboratories and Standards Institute, formerly the National Committee for Clinical Laboratory Standards (Clinical Laboratories and Standards Institute. Methods for Dilution Antimicrobial Susceptibility Tests for Bacteria That Grow Aerobically; Approved Standard—Seventh Edition. Document M7-A7. CLSI, Wayne, Pa., 2006; Clinical Laboratories and Standards Institute. The gram positive bacterial strains tested include S. aureus (Staphylococcus aureus (Isolate ID ATCC 29213)), E. faecalis (Enterococcus faecalis (Isolate ID ATCC 29212)) and S. pyogenes (Streptococcus pyogenes (Isolate ID ATCC 51339)). The gram negative bacterial strains tested include H. influenzae (Haemophilus influenzae (Isolate ID ATCC 49247))

[3] = test system: Streptococcus pyogenes (Isolate ID ATCC 51339); assay: Antibacterial activity, MIC, S. pyogenes; type: cell-based; details: Streptococcus pyogenes, ATCC51339, Gram positive strain; broth microdilution or agar dilution
Procedure, shortened: as §1

[4] = test system: Haemophilus influenzae (Isolate ID ATCC 49247); assay: Antibacterial activity, MIC, H. influenzae; type: cell-based; details: Haemophilus influenzae, ATCC49247; Gram negative strain; broth microdilution or agar dilution
Procedure, shortened: as §1

| SMILES | solubility at 24 h (physchem; Solubility (pH 7.4)) | solubility at 24 h (physchem; Solubility Range) | MIC [1] | MIC [2] | MIC [3] | MIC [4] | solubility at 24 h (physchem; Max Solubility) | solubility at 24 h (physchem; Solubility Range (maximum solubility)) |
| --- | --- | --- | --- | --- | --- | --- | --- | --- |
| CCNC(=O)Nc1nc2cc(-c3cnc(N4CCC(C)(C(=O)O)CC4)nc3)cc(-c3cc(F)ccn3)c2s1 [Compound 10] | 100 µg/mL (≈ 187 µM) | 12.5 to 400 µg/mL (≈ 23.3 to 747 µM) | ≤ 0.25 µg/mL | ≤ 0.25 µg/mL | ≤ 0.25 µg/mL | 1 to 16 µg/mL (≈ 1.87 to 29.9 µM) |  |  |
| CCNC(=O)Nc1nc2cc(-c3cnc(N4CCC(C)(C(=O)O)CC4)nc3)cc(-c3cnccn3)c2s1 [Compound 11] | ≥ 800 µg/mL | > 800 µg/mL | ≤ 0.25 µg/mL | ≤ 0.25 µg/mL | ≤ 0.25 µg/mL | 1 to 16 µg/mL (≈ 1.93 to 30.9 µM) |  |  |
| CCNC(=O)Nc1nc2cc(-c3cnc(N4CCC(C)(C(=O)O)CC4)nc3)cc(-c3nccc(C)n3)c2s1 [Compound 12] | ≥ 800 µg/mL | > 800 µg/mL | ≤ 0.25 µg/mL | ≤ 0.25 µg/mL | ≤ 0.25 µg/mL | 1 to 16 µg/mL (≈ 1.88 to 30 µM) |  |  |
| CCNC(=O)Nc1nc2cc(-c3cnc(N4CCC(C)(C(=O)O)CC4)nc3)cc(-c3ncccc3C#N)c2s1 [Compound 13] | 100 µg/mL (≈ 184 µM) | 12.5 to 400 µg/mL (≈ 23 to 737 µM) | ≤ 0.25 µg/mL | ≤ 0.25 µg/mL | ≤ 0.25 µg/mL | 1 to 16 µg/mL (≈ 1.84 to 29.5 µM) |  |  |
| CCNC(=O)Nc1nc2cc(-c3cnc(N4CCC(C)(C(=O)O)CC4)nc3)cc(-c3ccc(C#N)cn3)c2s1 [Compound 14] | ≥ 800 µg/mL | > 800 µg/mL | ≤ 0.25 µg/mL | ≤ 0.25 µg/mL | ≤ 0.25 µg/mL | 0.25 to 1 µg/mL (≈ 0.461 to 1.84 µM) |  |  |
| CCNC(=O)Nc1nc2cc(-c3cnc(N4CCC(C)(C(=O)O)CC4)nc3)cc(-c3cc(OC)ncn3)c2s1 [Compound 15] | ≥ 800 µg/mL | > 800 µg/mL | ≤ 0.25 µg/mL | ≤ 0.25 µg/mL | ≤ 0.25 µg/mL | 0.25 to 1 µg/mL (≈ 0.456 to 1.82 µM) |  |  |
| CCNC(=O)Nc1nc2cc(-c3cnc(N4CCC(C)(C(=O)O)CC4)nc3)cc(-c3cc(C#N)ccn3)c2s1 [Compound 16] | 6.25 µg/mL (≈ 11.5 µM) | < 12.5 µg/mL | ≤ 0.25 µg/mL | ≤ 0.25 µg/mL | ≤ 0.25 µg/mL | 1 to 16 µg/mL (≈ 1.84 to 29.5 µM) |  |  |
| CCNC(=O)Nc1nc2cc(-c3cnc(N4CCC(C)(C(=O)O)CC4)nc3)cc(-c3cc(OC)ccn3)c2s1 [Compound 17] | ≥ 800 µg/mL | > 800 µg/mL | ≤ 0.25 µg/mL | ≤ 0.25 µg/mL | ≤ 0.25 µg/mL | 0.25 to 1 µg/mL (≈ 0.457 to 1.83 µM) |  |  |
| CCNC(=O)Nc1nc2cc(-c3cnc(N4CCC(C)(C(=O)O)CC4)nc3)cc(-c3ncccc3F)c2s1 [Compound 18] | ≥ 800 µg/mL | > 800 µg/mL | ≤ 0.25 µg/mL | ≤ 0.25 µg/mL | ≤ 0.25 µg/mL | 1 to 16 µg/mL (≈ 1.87 to 29.9 µM) | ≥ 800 µg/mL | > 800 µg/mL |
| CCNC(=O)Nc1nc2cc(-c3cnc(N4CCC(C)(C(=O)O)CC4)nc3)cc(-c3ncco3)c2s1 [Compound 19] | ≥ 800 µg/mL | > 800 µg/mL | 0.25 to 1 µg/mL (≈ 0.493 to 1.97 µM) | ≤ 0.25 µg/mL | ≤ 0.25 µg/mL | 1 to 16 µg/mL (≈ 1.97 to 31.5 µM) |  |  |
| CCNC(=O)Nc1nc2cc(-c3cnc(N4CCC(C)(C(=O)O)CC4)nc3)cc(-c3cncs3)c2s1 [Compound 20] | ≥ 800 µg/mL | > 800 µg/mL | 0.25 to 1 µg/mL (≈ 0.477 to 1.91 µM) | ≤ 0.25 µg/mL | ≤ 0.25 µg/mL | 1 to 16 µg/mL (≈ 1.91 to 30.6 µM) |  |  |
| CCCCC#Cc1cc(-c2cnc(N3CCC(C)(C(=O)O)CC3)nc2)cc2nc(NC(=O)NCC)sc12 [Compound 22] | ≥ 800 µg/mL | > 800 µg/mL | 0.25 to 1 µg/mL (≈ 0.48 to 1.92 µM) | ≤ 0.25 µg/mL | 1 to 16 µg/mL (≈ 1.92 to 30.7 µM) | > 16 µg/mL |  |  |
| CCNC(=O)Nc1nc2cc(-c3cnc(N4CCC(C)(C(=O)O)CC4)nc3)cc(-c3csc(OC)n3)c2s1 [Compound 23, 1-[5-[2-(ethylcarbamoylamino)-7-(2-methoxythiazol-4-yl)-1,3-benzothiazol-5-yl]pyrimidin-2-yl]-4-methyl-piperidine-4-carboxylic acid] | ≥ 800 µg/mL | > 800 µg/mL | ≤ 0.25 µg/mL | ≤ 0.25 µg/mL | ≤ 0.25 µg/mL | 1 to 16 µg/mL (≈ 1.81 to 28.9 µM) |  |  |
